In patent US9656962B2, “Ring-contracted morphinans and the use thereof” (Purdue Pharma L.P., priority 2013, dated 2017):

Biological target: μ-opioid receptor (Homo sapiens (Human), UniProt P35372)
Experiment: μ-opioid receptor [35S]GTPγS functional assay, HEK-293 cells (Table 6)
Assay type: biochemical
Conditions: for Emax: relative to DAMGO; for EC50: μ GTP
Protocol: μ-Opioid Receptor Functional Assay Procedures: [^35S]GTPγS functional assays were conducted using freshly thawed μ-receptor membranes prepared in-house from a cell line expressing recombinant μ opioid receptor in a HEK-293, CHO or U-2 OS cell background, or purchased from a commercial source (Perkin Elmer, Shelton, Conn.; or DiscovRx, Fremont, Calif.). Assay reactions were prepared by sequentially adding the following reagents to binding buffer (100 mM NaCl, 10 mM MgCl2, 20 mM HEPES, pH 7.4) on ice (final concentrations indicated): membrane protein (0.026 mg/mL), saponin ([…]), GDP ([…]) and [^35S]GTPγS (0.20 nM; Perkin Elmer, Shelton, Conn.). The prepared membrane solution (190 μl/well) was transferred to 96-shallow well polypropylene plates containing 10 μl of 20× concentrated stock solutions of the agonist [D-Ala^2, N-methyl-Phe^4 Gly-ol^5]-enkephalin (DAMGO) prepared in dimethyl sulfoxide (DMSO). Plates were incubated for 30 min at about 25° C. with shaking Reactions were terminated by rapid filtration onto 96-well Unifilter GF/B filter plates (Perkin Elmer, Shelton, Conn.) using a 96-well tissue harvester (Perkin Elmer, Shelton, Conn.) followed by three filtration washes with 200 μl of ice-cold wash buffer (10 mM NaH2PO4, 10 mM Na2HPO4, pH 7.4). Filter plates were subsequently dried at 50° C. for 2-3 hours. BetaScint scintillation cocktail (Perkin Elmer, Shelton, Conn.) was added (50 μl/well) and plates were counted using a Packard Top-Count for 1 min/well. Data were analyzed using the sigmoidal dose-response curve fitting functions in GraphPad PRISM v. 3.0, or an in-house function for non-linear, sigmoidal dose-response curve-fitting. [^35S]GTPγS functional assays can also be conducted using freshly thawed μ-receptor membranes prepared from a cell line expressing recombinant μ opioid receptor in a CHO-K1 cell background.
μ GTP Emax (%) is the maximal effect elicited by a compound relative to the effect elicited by DAMGO, a standard μ agonist. Generally, the μ GTP Emax (%) value measures the efficacy of a compound to treat or prevent pain or other Conditions.
The following TABLE 6 provides results on the activity response of certain Compounds of the Invention at the μ- and κ-opioid receptors determined as described above using HEK-293 cells.

Row | Structure (SMILES) | Emax | EC50 (bound given in μM) | EC50
1 | O=C(NCc1ccc(Cl)cc1F)[C@@H]1C[C@]23CCN(CC4CC4)[C@H](Cc4ccc(O)cc42)[C@]3(O)C1 [Compound 136, (2R,3aS,4R,9bS)-N-(4-chloro-2-fluorobenzyl)-12-(cyclopropylmethyl)-3a,8-dihydroxy-1,2,3,3a,4,5-hexahydro-4,9b-(epiminoethano)cyclopenta-[a]naphthalene-2-carboxamide] | -0.33 ± 0.67% | > 20 µM | –
2 | Cc1ccc(CNC(=O)[C@H]2C[C@]34CCN(CC5CC5)[C@H](Cc5ccc(O)cc53)[C@]4(O)C2)cc1Cl [Compound 137, (2S,3aS,4R,9bS)-N-(3-chloro-4-methylbenzyl)-12-(cyclopropylmethyl)-3a,8-dihydroxy-1,2,3,3a,4,5-hexahydro-4,9b-(epiminoethano)cyclopenta-[a]naphthalene-2-carboxamide] | 55.5 ± 0.31% | – | 0.00045 ± 6.1e-05 µM
3 | Cc1c(Cl)cccc1CNC(=O)[C@H]1C[C@]23CCN(CC4CC4)[C@H](Cc4ccc(O)cc42)[C@]3(O)C1 [Compound 138, (2S,3aS,4R,9bS)-N-(3-chloro-2-methylbenzyl)-12-(cyclopropylmethyl)-3a,8-dihydroxy-1,2,3,3a,4,5-hexahydro-4,9b-(epiminoethano)cyclopenta-[a]naphthalene-2-carboxamide] | 52.4 ± 1.72% | – | 0.00071 ± 6.8e-05 µM
4 | O=C(NCc1cc(O)cc(O)c1)[C@@H]1C[C@]23CCN(CC4CC4)[C@H](Cc4ccc(O)cc42)[C@]3(O)C1 [Compound 139, (2R,3aS,4R,9bS)-12-(cyclopropylmethyl)-N-(3,5-dihydroxybenzyl)-3a,8-dihydroxy-1,2,3,3a,4,5-hexahydro-4,9b-(epimino-ethano)cyclopenta[a]naphthalene-2-carboxamide] | -1% | > 20 µM | –
5 | O=C(NCc1ccc(O)c(O)c1)[C@@H]1C[C@]23CCN(CC4CC4)[C@H](Cc4ccc(O)cc42)[C@]3(O)C1 [Compound 140, (2R,3aS,4R,9bS)-12-(cyclopropylmethyl)-N-(3,4-dihydroxybenzyl)-3a,8-dihydroxy-1,2,3,3a,4,5-hexahydro-4,9b-(epimino-ethano)cyclopenta[a]naphthalene-2-carboxamide] | 0.33 ± 0.67% | > 20 µM | –
6 | O=C(NCc1cccc(O)c1O)[C@H]1C[C@]23CCN(CC4CC4)[C@H](Cc4ccc(O)cc42)[C@]3(O)C1 [Compound 141, (2S,3aS,4R,9bS)-12-(cyclopropylmethyl)-N-(2,3-dihydroxybenzyl)-3a,8-dihydroxy-1,2,3,3a,4,5-hexabydro-4,9b-(epimino-ethano)cyclopenta[a]naphthalene-2-carboxamide] | 47.4 ± 0.83% | – | 0.00117 ± 0.0001 µM
7 | O=C(NCc1cccc(O)c1)[C@@H]1C[C@]23CCN(CC4CC4)[C@H](Cc4ccc(O)cc42)[C@]3(O)C1 [Compound 142, (2R,3aS,4R,9bS)-12-(cyclopropylmethyl)-3a,8-dihydroxy-N-(3-hydroxybenzyl)-1,2,3,3a,4,5-hexahydro-4,9b-(epimino-ethano)cyclopenta[a]naphthalene-2-carboxamide] | 0% | > 20 µM | –
8 | O=C(NCc1cc(F)cc(F)c1)[C@H]1C[C@]23CCN(CC4CC4)[C@H](Cc4ccc(O)cc42)[C@]3(O)C1 [Compound 143, (2S,3aS,4R,9bS)-12-(cyclopropylmethyl)-N-(3,5-difluorobenzyl)-3a,8-dihydroxy-1,2,3,3a,4,5-hexahydro-4,9b-(epimino-ethano)cyclopenta[a]naphthalene-2-carboxamide] | 39.9 ± 1.01% | – | 0.00209 ± 0.00045 µM
9 | O=C(NCc1ccc(F)c(F)c1)[C@@H]1C[C@]23CCN(CC4CC4)[C@H](Cc4ccc(O)cc42)[C@]3(O)C1 [Compound 145, (2R,3aS,4R,9bS)-12-(cyclopropylmethyl)-N-(3,4-difluorobenzyl)-3a,8-dihydroxy-1,2,3,3a,4,5-hexahydro-4,9b-(epimino-ethano)cyclopenta[a]naphthalene-2-carboxamide] | -1% | > 20 µM | –
